Assay results as given in patent US20250108038A1 (priority 2023, published 2025).
“And” between values parts separate entries of the source, which are not always exact repeats. Equal values may be shown once. Read-outs that look alike come from different tables or passages of the source.

Experiments:
CYP2D6 = CYP2D6 (Homo sapiens, UniProt P10635); test: biochemical
[1] = Plasma and brain concentrations after 3 mg/kg i.p. in male CD-1 mice; details: for fu* Cmax: fu by equilibrium dialysis after 6 h
Protocol: Following dosing, three animals were sacrificed per time-point for the collection of terminal plasma and brain. […] Pharmacokinetics (PK) parameters for plasma and whole brain were estimated from the mean plasma and brain concentration versus time profiles.
The animals will be acclimatized to their new environment for a minimum of 5 days prior to study start.
Any unused dosing solutions will be stored at approximately −80° C. until transferred on dry ice to the bioanalytical facility.
The animals will be dosed intra-peritoneally (i.p.) into the lower right quadrant of the abdomen using a 0.5 mL Tuberculin syringe with attached needle 27 G×[…].
Whole blood will be collected via cardiac puncture under isoflurane anesthesia from three mice at each time-point at the collection times outlined in Table 2. Up to 0.8 mL of blood will be collected into 0.8 mL mini-collect K2EDTA coated tubes. Blood tubes will be centrifuged at 3200×g for 5 min. at 4° C. and plasma transferred into 1.5 mL flip top tubes. One vial of plasma for each collection time point will stored at approximately […] until transferred on dry ice to the bioanalytical facility.
Following cardiac puncture, mice will be perfused with 12 mL of ice-cold PBS via the left ventricle. Brains will then be excised, blotted and placed into pre-weighed 5 mL self standing green top sample tubes. Tubes containing brains will be re-weighed and then snap frozen in liquid nitrogen. Brain samples will be stored frozen at approximately −80° C. until transferred on dry ice to the bioanalytical facility.

Wistar rats = test: Five Choice Serial Reaction Time Task, vSD version, repeated administration; format: in vivo, Wistar rat; parameters: Latency (Correct) / Latency (Incorrect): unit not given here; details: for Latency (Correct) / Latency (Incorrect) / Magazine Head Entries / Omissions / Reward Latency / Trials Completed: vSD, mean ± SEM
Text: The behavioral tasks utilized were three versions of the rat Five Choice Serial Reaction Time Task (5C-SRTT), the standard version of the task (STD) with a fixed stimulus duration and a fixed intertrial interval, the variable stimulus duration (vSD) and the variable intertrial interval (vITI) version. The principal readout parameters in each task were the % Hit and the % correct choices (measures of sustained attention) and three measures of inhibitory response control (premature, perseverative, and timeout responses), although a number of additional outcome measures were obtained (see under Methods and Results below).
Twenty-four adult (approx. 10 months old) male Wistar rats (Envigo, Inc, Indianapolis, IN) were used in the study. […] Subjects were double housed in polycarbonate cages (45×30×18 cm) with corncob bedding in a vivarium of constant temperature (21-23° C.) and humidity (40-50%). […] All behavioral testing was performed during the light portion (9 a.m.-5 p.m.) of the light/dark cycle (Monday thru Friday). Animals were cared for in accordance with the Guide for the Care and Use of Laboratory Animals (U.S. National Institutes of Health) and the experimental protocols were approved by the Institutional Animal Care and Use Committee at Augusta University (Protocol #2010-0044).
The 5C-SRTT procedure (reviewed, Robbins, 2002. Psychopharmacology (Berl); 163(3-4):362-80) was conducted as we have described previously (Terry et al., 2014, Neurotoxicology and Teratology 44:18-29, 2014; Callahan et al., 2020, Neuropharmacology. August 15; 173:107994). […] Animals were trained in eight automated 5C-SRTT operant chambers (Med Associates, St. Albans, VT, USA), controlled by MedPC software (Med Associates). Briefly, each operant chamber was equipped with 5 apertures containing a photocell beam to detect nose pokes and a lamp (2.8 W) that could be illuminated randomly at varying durations. Food pellets (45 mg chow pellet, BioServ, Frenchtown, NJ, USA) were delivered automatically to a magazine, located on the opposite wall to the nose pokes, that was also equipped with a light that turned on to indicate that a pellet had been dispensed. The house-light remained on for the entire session unless an error or omission occurred. Training sessions began with the delivery of a food reward and retrieval triggered the first trial. […] Sessions ended when 40 minutes had lapsed or 100 trials had been completed.
For this study, subjects were re-trained 5 days per week until they re-established a stable performance criteria with a fixed (1.0 sec) stimulus duration and a fixed ITI (5 sec) of 70-75% accuracy, <20% omissions and completion of all 100 trials for 5 consecutive days. Upon meeting these performance criteria animals were trained for one additional week and two groups of subjects (N=12) were assembled and balanced according to their performance accuracy, specifically the % Hit evaluation, which takes into account correct responses as well as all incorrect responses including the number of omissions. […] The vSD version of the task increases the attentional load while the vITI increases impulsivity-like behavior. The following outcome measures and behavioral domains were assessed: % Hit and % correct=sustained attention; omissions=attention/motivation; premature responses=impulsivity; perseverative responses=compulsivity; timeout responses=cognitive inflexibility; magazine head entries=appetitive motivation and compulsivity-like behavior; response latencies=information processing speed and/or motivation. For the STD version of the task, the stimulus duration (SD) was fixed at 1.0 sec and the ITI was fixed at 5 sec. In the vSD version of the task the following stimulus durations were presented in a pseudorandom manner: 0.3, 0.6, and 0.9 sec. In the vITI version, 2.5, 5.0, and 10.0 sec ITIs were employed in a pseudorandom manner. […]

[2] = 3 mg/kg i.p. Compound I-19, male CD-1 mice
[3] = after 3 mg/kg i.p. Compound I-19
[4] = after 3 mg/kg i.p. Compound I-19, below the lower levels of quantitation
[5] = brain, 3 mg/kg i.p. Compound I-19, male CD-1 mice
[6] = plasma, 3 mg/kg i.p. Compound I-19, male CD-1 mice
[7] = Group 1, 0.1 mg/kg, Drug Exp period
[8] = Group 1, 0.1 mg/kg, Post-Drug Exp (vehicle washout) period
[9] = Group 2, 0.3 mg/kg, Drug Exp period
[10] = Group 2, 0.3 mg/kg, Post-Drug Exp (vehicle washout) period

Chain of CYP2D6 (P10635 whole entry): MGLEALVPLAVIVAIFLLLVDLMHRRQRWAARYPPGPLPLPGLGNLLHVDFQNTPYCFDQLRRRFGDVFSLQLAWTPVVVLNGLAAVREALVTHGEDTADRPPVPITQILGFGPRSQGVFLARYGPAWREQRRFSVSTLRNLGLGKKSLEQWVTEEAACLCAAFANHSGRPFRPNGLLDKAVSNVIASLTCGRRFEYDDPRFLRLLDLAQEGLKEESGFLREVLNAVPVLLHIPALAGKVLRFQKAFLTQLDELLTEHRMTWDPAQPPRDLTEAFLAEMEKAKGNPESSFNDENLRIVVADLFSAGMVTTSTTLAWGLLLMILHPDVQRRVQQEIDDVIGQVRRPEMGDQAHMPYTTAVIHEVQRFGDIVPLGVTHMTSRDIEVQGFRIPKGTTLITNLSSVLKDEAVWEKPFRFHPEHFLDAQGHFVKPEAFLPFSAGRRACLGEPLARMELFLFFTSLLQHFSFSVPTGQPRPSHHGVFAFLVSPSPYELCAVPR

OC1(c2ccc(Cl)cc2)c2ccccc2C2=NCCN21 (stereo not shown) [Compound A, 5-(4-chlorophenyl)-2,3-dihydroimidazo[1,2-b]isoindol-5-ol, reference compound]
IC50 (CYP2D6): 4.16 µM

Clc1ccc(C2(OCC3OCCO3)c3ccccc3C3=NCCN32)cc1 (stereo not shown) [Compound I-19]
Cmax in brain relative to plasma ([1]; 3 mg/kg i.p.): 1.8 fold
Maximum brain concentration (Cmax) of Compound I-19 ([1]; 3 mg/kg i.p.): 1182 nmol/kg
Tmax of Compound I-19 (plasma and brain) ([1]; 3 mg/kg i.p.): 5 min
apparent half-life in brain ([1]; 3 mg/kg i.p.): 25.6 min and 25.2 min
apparent half-life in plasma ([1]; 3 mg/kg i.p.): 25.4 min and 25.2 min
(fu* AUC0-inf)brain/(fu*AUC0-inf)plasma ratio (Kp, uu) [1, 2]: 2.12
Brain/plasma AUC0-inf ratio (Kp) [1, 2]: 2.38
brain to plasma partitioning coefficient (Kp) ([1]; 3 mg/kg i.p., AUC0-inf based): 2.38
brain to plasma unbound partition coefficient (Kp,uu) ([1]; 3 mg/kg i.p., corrected for unbound fractions): 2.12
Tmax of Compound A in brain [1, 3]: 45 min
Tmax of Compound A in plasma [1, 3]: 15 min
peak brain concentration of Compound A [1, 3]: 60.3 nmol/kg
peak plasma concentration of Compound A [1, 3]: 48.2 nmol/L
brain concentration of Compound B [1, 4]: < 3 nmol/kg
plasma concentration of Compound B [1, 4]: < 1 nM
Cmax ([1]; brain (expressed as nmol/kg = nmol/L per footnote), 3 mg/kg i.p. Compound I-19, male CD-1 mice): 1180 nM
AUC0-inf [1, 5]: 0.521 µM·h
Apparent T1/2 [1, 5]: 25.6 min
Tmax [1, 5]: 5 min
fu* AUC0-inf [1, 5]: 0.0172 µM·h
fu* Cmax [1, 5]: 39.1 nM
AUC0-inf [1, 6]: 0.218 µM·h
Apparent T1/2 [1, 6]: 25.4 min
Cmax [1, 6]: 648 nM
Tmax [1, 6]: 5 min
fu* AUC0-inf [1, 6]: 0.00813 µM·h
fu* Cmax [1, 6]: 24.1 nM
Cmax ([1]; read-out: Maximum plasma concentration (Cmax) of Compound I-19, 3 mg/kg i.p.): 648 nM
% Hit (Wistar rats; repeated 0.1 and 0.3 mg/kg IP): modest decrease in accuracy that was limited to the 0.6 sec stimulus duration
premature responses (Wistar rats; repeated 0.1 and 0.3 mg/kg IP): reduced the number of premature responses compared to post-drug conditions
Latency (Correct) (Wistar rats; [7]): 0.99
Latency (Incorrect) (Wistar rats; [7]): 2.17
Magazine Head Entries (Wistar rats; [7]): 168.21 ± 10.60
Omissions (Wistar rats; [7]): 15.79
Reward Latency (Wistar rats; [7]): 2.44
Trials Completed (Wistar rats; [7]): 94.17 ± 2.75
Latency (Correct) (Wistar rats; [8]): 0.86 ± 0.03
Latency (Incorrect) (Wistar rats; [8]): 1.90 ± 0.09
Magazine Head Entries (Wistar rats; [8]): 189.79 ± 14.47
Omissions (Wistar rats; [8]): 8.12 ± 1.63
Reward Latency (Wistar rats; [8]): 2.13
Trials Completed (Wistar rats; [8]): 97.79 ± 2.21
Latency (Correct) (Wistar rats; [9]): 0.91
Latency (Incorrect) (Wistar rats; [9]): 2.21
Magazine Head Entries (Wistar rats; [9]): 208.46 ± 28.88
Omissions (Wistar rats; [9]): 14.08
Reward Latency (Wistar rats; [9]): 2.99
Trials Completed (Wistar rats; [9]): 98.29 ± 0.84
Latency (Correct) (Wistar rats; [10]): 0.76
Latency (Incorrect) (Wistar rats; [10]): 1.65 ± 0.08
Magazine Head Entries (Wistar rats; [10]): 245.17 ± 33.79
Omissions (Wistar rats; [10]): 5.79 ± 1.35
Reward Latency (Wistar rats; [10]): 2.11
Trials Completed (Wistar rats; [10]): 100.00
